Organism: Rattus norvegicus
Experiment: Open TG-GATES - Regimen: Single
Type: toxicity, organism-based, Sprague-Dawley
Parameters: regimen Single, gender Male, age 6 weeks
Conditions: in vivo, po, route gavage; for APTT / Bas / Eos / Fbg / Hb / Ht / Lym / MCH / MCHC / MCV / Mono / Neu / PT / Plat / RBC / Ret / WBC: tissue Blood; for KIDNEY_L / KIDNEY_R / KIDNEY_TOTAL: tissue Kidney; for LIVER: tissue Liver; for ALP / ALT / AST / BUN / CRE / Ca / DBIL / GLC / IP / K / LDH / Na / PL / RALB / TBIL / TC / TG / TP / gamma-GTP: tissue Plasma
[1] = 30 mg/kg, 3 h, dose level Middle
[2] = 30 mg/kg, 6 h, dose level Middle
[3] = 30 mg/kg, 9 h, dose level Middle
[4] = 30 mg/kg, 24 h, dose level Middle
[5] = 100 mg/kg, 3 h, dose level High
[6] = 100 mg/kg, 6 h, dose level High
[7] = 100 mg/kg, 9 h, dose level High
[8] = 100 mg/kg, 24 h, dose level High

CSc1ccc2c(c1)N(CCC1CCCCN1C)c1ccccc1S2 (stereo not given) [THIORIDAZINE]
TERMINAL_BW [1]: 215.8 g
APTT [1]: 16.7 s
Bas [1]: 0%
Eos [1]: 1%
Fbg [1]: 201.2 mg/dL
Hb [1]: 12.4 g/dL
Ht [1]: 37.2%
Lym [1]: 73.8%
MCH [1]: 22.1 pg
MCHC [1]: 33.3%
MCV [1]: 66.4 fL
Mono [1]: 8.8%
Neu [1]: 16.8%
PT [1]: 12.5 s
Plat [1]: 102.7 x10_4/uL
RBC [1]: 560.6 x10_4/ul
Ret [1]: 8.6%
WBC [1]: 77.9 x10_2/uL
KIDNEY_L [1]: 1 g
KIDNEY_R [1]: 1 g
KIDNEY_TOTAL [1]: 2 g
LIVER [1]: 10.5 g
ALP [1]: 794 IU/L
ALT [1]: 37.8 IU/L
AST [1]: 66.6 IU/L
BUN [1]: 12.4 mg/dL
CRE [1]: 0.5 mg/dL
Ca [1]: 11.1 mg/dL
DBIL [1]: 0.04 mg/dL
GLC [1]: 206.6 mg/dL
IP [1]: 10.3 mg/dL
K [1]: 4.4 meq/L
LDH [1]: 91.2 IU/L
Na [1]: 139 meq/L
PL [1]: 127.2 mg/dL
RALB [1]: 3.6 g/dL
TBIL [1]: 0.4 mg/dL
TC [1]: 70.2 mg/dL
TG [1]: 43.6 mg/dL
TP [1]: 5.2 g/dL
gamma-GTP [1]: 1 IU/L
TERMINAL_BW [2]: 216.3 g
APTT [2]: 15.9 s
Bas [2]: 0%
Eos [2]: 0.6%
Fbg [2]: 230.2 mg/dL
Hb [2]: 12.5 g/dL
Ht [2]: 37.5%
Lym [2]: 74.2%
MCH [2]: 21.9 pg
MCHC [2]: 33.2%
MCV [2]: 66 fL
Mono [2]: 7.8%
Neu [2]: 17.4%
PT [2]: 12 s
RBC [2]: 569.4 x10_4/ul
Ret [2]: 8%
WBC [2]: 91.2 x10_2/uL
KIDNEY_L [2]: 1 g
KIDNEY_R [2]: 1 g
KIDNEY_TOTAL [2]: 2 g
LIVER [2]: 10.3 g
ALP [2]: 765.6 IU/L
ALT [2]: 30.2 IU/L
AST [2]: 63.2 IU/L
BUN [2]: 10.2 mg/dL
CRE [2]: 0.5 mg/dL
Ca [2]: 10.8 mg/dL
DBIL [2]: 0.022 mg/dL
GLC [2]: 208.6 mg/dL
IP [2]: 10.9 mg/dL
K [2]: 4.5 meq/L
LDH [2]: 98.4 IU/L
Na [2]: 139.4 meq/L
PL [2]: 154 mg/dL
RALB [2]: 3.8 g/dL
TBIL [2]: 0.4 mg/dL
TC [2]: 81.4 mg/dL
TG [2]: 62.8 mg/dL
TP [2]: 5.4 g/dL
gamma-GTP [2]: 1.6 IU/L
TERMINAL_BW [3]: 213.1 g
APTT [3]: 16.2 s
Bas [3]: 0%
Eos [3]: 0.4%
Fbg [3]: 213.4 mg/dL
Hb [3]: 12.6 g/dL
Ht [3]: 38%
Lym [3]: 80.6%
MCH [3]: 21.8 pg
MCHC [3]: 33.3%
MCV [3]: 65.6 fL
Mono [3]: 6%
Neu [3]: 13.2%
PT [3]: 12.3 s
Plat [3]: 108 x10_4/uL
RBC [3]: 578.8 x10_4/ul
Ret [3]: 7.8%
WBC [3]: 109.8 x10_2/uL
KIDNEY_L [3]: 0.9 g
KIDNEY_R [3]: 1 g
KIDNEY_TOTAL [3]: 1.9 g
LIVER [3]: 9.6 g
ALP [3]: 971.8 IU/L
ALT [3]: 28.2 IU/L
AST [3]: 58.2 IU/L
BUN [3]: 12.6 mg/dL
CRE [3]: 0.6 mg/dL
Ca [3]: 10.9 mg/dL
DBIL [3]: 0.018 mg/dL
GLC [3]: 215.6 mg/dL
IP [3]: 10.6 mg/dL
K [3]: 4.3 meq/L
LDH [3]: 82.4 IU/L
Na [3]: 141 meq/L
PL [3]: 148.8 mg/dL
RALB [3]: 3.8 g/dL
TBIL [3]: 0.4 mg/dL
TC [3]: 82.2 mg/dL
TG [3]: 59.6 mg/dL
TP [3]: 5.6 g/dL
gamma-GTP [3]: 1.4 IU/L
TERMINAL_BW [4]: 225.1 g
APTT [4]: 16 s
Bas [4]: 0%
Eos [4]: 1%
Fbg [4]: 215.4 mg/dL
Hb [4]: 13.4 g/dL
Ht [4]: 40.3%
Lym [4]: 77.2%
MCH [4]: 21.5 pg
MCHC [4]: 33.3%
MCV [4]: 64.6 fL
Mono [4]: 9%
Neu [4]: 12.8%
PT [4]: 12.1 s
Plat [4]: 108 x10_4/uL
RBC [4]: 623.4 x10_4/ul
Ret [4]: 8%
WBC [4]: 124.9 x10_2/uL
KIDNEY_L [4]: 1 g
KIDNEY_R [4]: 1 g
KIDNEY_TOTAL [4]: 2 g
LIVER [4]: 11.7 g
ALP [4]: 905.2 IU/L
ALT [4]: 43 IU/L
AST [4]: 69.8 IU/L
BUN [4]: 19.4 mg/dL
CRE [4]: 0.5 mg/dL
Ca [4]: 11.5 mg/dL
DBIL [4]: 0.062 mg/dL
GLC [4]: 190.2 mg/dL
IP [4]: 9.3 mg/dL
K [4]: 4.9 meq/L
LDH [4]: 89.2 IU/L
Na [4]: 139.2 meq/L
PL [4]: 163 mg/dL
RALB [4]: 4 g/dL
TBIL [4]: 0.3 mg/dL
TC [4]: 84.4 mg/dL
TG [4]: 119.8 mg/dL
TP [4]: 5.9 g/dL
gamma-GTP [4]: 1 IU/L
TERMINAL_BW [5]: 217.7 g
APTT [5]: 16.7 s
Bas [5]: 0%
Eos [5]: 1%
Fbg [5]: 205.2 mg/dL
Hb [5]: 12.6 g/dL
Ht [5]: 38.2%
Lym [5]: 70.2%
MCH [5]: 21.9 pg
MCHC [5]: 33.1%
MCV [5]: 66.3 fL
Mono [5]: 11%
Neu [5]: 17.8%
PT [5]: 12.2 s
RBC [5]: 576.8 x10_4/ul
Ret [5]: 8.6%
WBC [5]: 56.2 x10_2/uL
KIDNEY_L [5]: 1 g
KIDNEY_R [5]: 1 g
KIDNEY_TOTAL [5]: 2 g
LIVER [5]: 10.5 g
ALP [5]: 990.6 IU/L
ALT [5]: 41.8 IU/L
AST [5]: 70.2 IU/L
BUN [5]: 11.2 mg/dL
CRE [5]: 0.6 mg/dL
Ca [5]: 11 mg/dL
DBIL [5]: 0.018 mg/dL
GLC [5]: 215 mg/dL
K [5]: 4.2 meq/L
LDH [5]: 163.8 IU/L
Na [5]: 139.8 meq/L
PL [5]: 138.2 mg/dL
RALB [5]: 3.7 g/dL
TBIL [5]: 0.3 mg/dL
TC [5]: 80.2 mg/dL
TG [5]: 34.4 mg/dL
TP [5]: 5.3 g/dL
gamma-GTP [5]: 1 IU/L
TERMINAL_BW [6]: 215 g
APTT [6]: 16.9 s
Bas [6]: 0%
Eos [6]: 0.6%
Fbg [6]: 204.6 mg/dL
Hb [6]: 12.5 g/dL
Ht [6]: 37.7%
Lym [6]: 71.6%
MCH [6]: 21.6 pg
MCHC [6]: 33.1%
MCV [6]: 65.1 fL
Mono [6]: 8.6%
Neu [6]: 18.6%
PT [6]: 12.2 s
Plat [6]: 106.5 x10_4/uL
RBC [6]: 579 x10_4/ul
Ret [6]: 7.8%
WBC [6]: 84.2 x10_2/uL
KIDNEY_L [6]: 1 g
KIDNEY_R [6]: 1 g
KIDNEY_TOTAL [6]: 2 g
LIVER [6]: 9.4 g
ALP [6]: 868.4 IU/L
ALT [6]: 30.8 IU/L
AST [6]: 63.8 IU/L
BUN [6]: 8.2 mg/dL
CRE [6]: 0.5 mg/dL
Ca [6]: 10.5 mg/dL
DBIL [6]: 0.016 mg/dL
GLC [6]: 211 mg/dL
IP [6]: 10.6 mg/dL
K [6]: 4.5 meq/L
LDH [6]: 166.6 IU/L
Na [6]: 139.6 meq/L
PL [6]: 135.2 mg/dL
RALB [6]: 3.7 g/dL
TBIL [6]: 0.4 mg/dL
TC [6]: 77.8 mg/dL
TG [6]: 19.6 mg/dL
TP [6]: 5.4 g/dL
gamma-GTP [6]: 2.6 IU/L
TERMINAL_BW [7]: 210.8 g
APTT [7]: 16.3 s
Bas [7]: 0%
Eos [7]: 0.4%
Fbg [7]: 215.6 mg/dL
Hb [7]: 12.5 g/dL
Ht [7]: 38.3%
Lym [7]: 76.8%
MCH [7]: 21 pg
MCHC [7]: 32.8%
MCV [7]: 64.1 fL
Mono [7]: 7.2%
Neu [7]: 15.6%
PT [7]: 12.1 s
Plat [7]: 110.2 x10_4/uL
RBC [7]: 598.4 x10_4/ul
Ret [7]: 7.3%
WBC [7]: 80.7 x10_2/uL
KIDNEY_L [7]: 1 g
KIDNEY_R [7]: 1 g
KIDNEY_TOTAL [7]: 2 g
LIVER [7]: 9.4 g
ALP [7]: 850.6 IU/L
ALT [7]: 31.6 IU/L
AST [7]: 61.2 IU/L
BUN [7]: 9.6 mg/dL
CRE [7]: 0.5 mg/dL
Ca [7]: 10.6 mg/dL
DBIL [7]: 0.018 mg/dL
GLC [7]: 223.4 mg/dL
IP [7]: 9.8 mg/dL
K [7]: 4.2 meq/L
LDH [7]: 144.8 IU/L
Na [7]: 141.4 meq/L
PL [7]: 155.2 mg/dL
RALB [7]: 3.7 g/dL
TBIL [7]: 0.4 mg/dL
TC [7]: 84 mg/dL
TG [7]: 28.4 mg/dL
TP [7]: 5.4 g/dL
gamma-GTP [7]: 1.2 IU/L
TERMINAL_BW [8]: 217.8 g
APTT [8]: 16.1 s
Bas [8]: 0%
Eos [8]: 1%
Fbg [8]: 209 mg/dL
Hb [8]: 13.5 g/dL
Ht [8]: 40.5%
Lym [8]: 84.4%
MCH [8]: 21.5 pg
MCHC [8]: 33.4%
MCV [8]: 64.6 fL
Mono [8]: 4.6%
Neu [8]: 10%
PT [8]: 12.2 s
Plat [8]: 125.1 x10_4/uL
RBC [8]: 628 x10_4/ul
Ret [8]: 7.3%
WBC [8]: 102 x10_2/uL
KIDNEY_L [8]: 1 g
KIDNEY_R [8]: 1 g
KIDNEY_TOTAL [8]: 2.1 g
LIVER [8]: 10.9 g
ALP [8]: 952.2 IU/L
ALT [8]: 35.4 IU/L
AST [8]: 62.4 IU/L
BUN [8]: 21.4 mg/dL
CRE [8]: 0.5 mg/dL
Ca [8]: 11.2 mg/dL
DBIL [8]: 0.022 mg/dL
GLC [8]: 210.8 mg/dL
IP [8]: 9.8 mg/dL
K [8]: 4.5 meq/L
LDH [8]: 166.8 IU/L
Na [8]: 140.4 meq/L
PL [8]: 172.6 mg/dL
RALB [8]: 4.2 g/dL
TBIL [8]: 0.3 mg/dL
TC [8]: 91.4 mg/dL
TG [8]: 97.8 mg/dL
TP [8]: 6.1 g/dL
gamma-GTP [8]: 1.4 IU/L

Source: ChEMBL document CHEMBL3885861, “Open TG-GATES”
